In PubChem BioAssay AID602356 (Sanford-Burnham Center for Chemical Genomics, 2012):
pEC50: −log10 of the molar value. “And” between values parts separate entries of the source, which are not always exact repeats. Equal entries are not always repeated. The source made the active and inactive calls. The rule behind the calls is not given here.

Target: Neurotensin receptor type 1 (Homo sapiens) (UniProt P30989)
Assay: NTR1 agonists in analog series, SAR follow-up, imaging, image-based, set 3 (AID 602356)
Conditions: NTR1 image-based agonist assay, cellular imaging

Sequence of Neurotensin receptor type 1 (Homo sapiens) (P30989 whole entry, looked up): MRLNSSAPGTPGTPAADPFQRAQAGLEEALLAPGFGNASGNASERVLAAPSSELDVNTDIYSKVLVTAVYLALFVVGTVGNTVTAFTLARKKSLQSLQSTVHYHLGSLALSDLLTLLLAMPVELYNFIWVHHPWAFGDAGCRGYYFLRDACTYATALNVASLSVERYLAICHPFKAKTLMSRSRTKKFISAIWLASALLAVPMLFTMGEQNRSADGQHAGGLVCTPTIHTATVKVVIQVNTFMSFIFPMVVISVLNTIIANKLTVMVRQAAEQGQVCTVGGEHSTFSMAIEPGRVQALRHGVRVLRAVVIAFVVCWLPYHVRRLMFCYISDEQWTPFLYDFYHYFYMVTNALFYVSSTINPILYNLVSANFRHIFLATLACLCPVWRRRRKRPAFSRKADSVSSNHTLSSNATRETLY

| Structure (SMILES) | EC50 | pEC50 |
| --- | --- | --- |
| COc1cc2nc(-c3ccccc3)nc(N3CCN(c4ccc(Cl)cc4)CC3)c2cc1OC | > 80 µM (inactive) | – |
| Cc1ccc(Cn2cc3c(-c4ccc(C)cc4)nnc-3c3cc4c(cc32)OCO4)cc1 | inactive | – |
| COc1cc2ncnc(N3CCN(c4ccccc4OC)CC3)c2cc1OC | > 80 µM (inactive) | – |
| CC(C)C[C@H](NC(=O)c1cn(-c2ccnc3ccccc23)c(-c2ccccc2)n1)C(=O)O | > 80 µM (inactive) | – |
| Cc1cccc(C)c1-c1nc(C(=O)N[C@@H](CC(C)C)C(=O)O)cn1-c1ccnc2cc(Cl)ccc12 | – | 5.03 |
| COc1ccccc1N1CCN(c2nc(C3CCC3)nc3cc4c(cc23)OCO4)CC1 | inactive | – |
| COc1ccc2nc(C3CCC3)nc(N3CCN(c4ccccc4OC)CC3)c2c1 | – | 5.00 |
| COc1cc2nc(CC(C)C)nc(N3CCN(c4ccccc4OC)CC3)c2cc1OC | – | 4.82 |
| CCOC(=O)c1cc(-c2c(OC)cccc2OC)n(-c2ccnc3cc(Cl)ccc23)n1 | > 80 µM (inactive) | – |
| Cc1ccc(Cn2cc3c(-c4ccc(C)c(C)c4)nnc-3c3cc4c(cc32)OCO4)cc1 | – | 4.79 |
| COc1ccccc1-c1nc(C(=O)N[C@@H](CC(C)C)C(=O)O)cn1-c1ccnc2ccccc12 | > 80 µM (inactive) | – |
| CC(C)C[C@H](NC(=O)c1cn(-c2ccnc3cc(Cl)ccc23)c(-c2c(Cl)cccc2Cl)n1)C(=O)O | – | 5.29 |
| COc1ccc(-c2nnc3c4ccccc4n(CCc4ccccc4)cc2-3)cc1 | inactive | – |
| COc1cc2nc(CC3CC3)nc(N3CCN(c4ccccc4OC)CC3)c2cc1OC | – | 4.85 |
| COc1cc2nc(-c3ccccc3)nc(N3CCN(c4ccc(F)cc4)CC3)c2cc1OC | > 80 µM (inactive) | – |
| COc1ccc2c3nnc(-c4ccc(C)cc4)c-3cn(Cc3ccccc3)c2c1 | – | 4.80 |
| COc1ccc(-c2nnc3c4ccccc4n(Cc4ccccc4)cc2-3)cc1 | inactive | – |
| COc1cc2nc(C3CC3)nc(N3CCN(C(=O)OC(C)(C)C)CC3)c2cc1OC | inactive | – |
| COc1cc2nc(C3CC3)nc(N3CCN(c4ccccc4OC)CC3)c2cc1OC | – | 5.66 and 5.72 |
| COc1ccc(-c2nc(C(=O)N[C@@H](CC(C)C)C(=O)O)cn2-c2ccnc3cc(Cl)ccc23)c(OC)c1 | > 80 µM (inactive) | – |
| COc1cccc(OC)c1-c1nc(C(=O)N[C@H](CC(C)C)C(=O)O)cn1-c1ccnc2cc(Cl)ccc12 | – | 5.03 |
| CCc1nc(N2CCN(c3ccccc3OC)CC2)c2cc(OC)c(OC)cc2n1 | inactive | – |

More lines, now with the values ahead:

| EC50 | pEC50 | Structure (SMILES) |
| --- | --- | --- |
| > 80 µM (inactive) | – | COc1cc2c3nnc(-c4ccccc4)c-3cn(Cc3ccc(C)cc3)c2cc1OC |
| – | 5.03 | Cc1ccc(-c2nnc3c4cc5c(cc4n(Cc4ccc(F)cc4)cc2-3)OCO5)cc1 |
| inactive | – | COc1cc2c3nnc(-c4ccc(F)cc4)c-3cn(CCc3ccccc3)c2cc1OC |
| inactive | – | COc1cc2c3nnc(-c4ccc(F)cc4)c-3cn(Cc3ccccn3)c2cc1OC |
| – | 5.09 | CCOc1ccc(-c2nnc3c4cc(OC)c(OC)cc4n(Cc4ccc(F)cc4)cc2-3)cc1 |
| – | 5.26 and 5.09 | Cc1ccc(Cn2cc3c(-c4ccc(F)cc4)nnc-3c3cc4c(cc32)OCO4)cc1 |
| – | 5.14 and 5.13 | COc1cc2c3nnc(-c4ccc(F)cc4)c-3cn(Cc3ccccc3)c2cc1OC |
| – | 5.17 | COc1cc2c3nnc(-c4ccc(C)cc4)c-3cn(Cc3ccc(C)cc3)c2cc1OC |
| – | 5.21 | COc1cc2c3nnc(-c4ccc(C)c(C)c4)c-3cn(Cc3ccccc3)c2cc1OC |
| – | 5.03 | COc1ccc2c(c1)c1nnc(-c3ccc(F)cc3)c-1cn2Cc1ccccc1 |
| – | 5.28 | COc1ccc(-c2nnc3c4cc(OC)c(OC)cc4n(Cc4ccc(C)cc4)cc2-3)cc1 |
| – | 5.04 | CCc1ccc(-c2nnc3c4cc(OC)c(OC)cc4n(Cc4ccc(F)cc4)cc2-3)cc1 |
| – | 5.60 | COc1cc2c3nnc(-c4ccc(F)cc4)c-3cn(Cc3ccccc3F)c2cc1OC |
| – | 4.77 | COc1ccc(-c2nnc3c4cc(OC)c(OC)cc4n(Cc4ccccc4)cc2-3)cc1 |
| – | 5.16 and 5.17 | COc1cc2c3nnc(-c4ccc(F)cc4)c-3cn(Cc3ccc(C)cc3)c2cc1OC |
